Experimental data: US20230225987A1, “TOPICAL PHARMACEUTICAL COMPOSITIONS” (Dermavant Sciences GmbH, priority 2020, published 2023)

Tests used:
[1] = 28-day twice daily topical administration: toxicokinetics, skin concentrations, dermal irritancy and toxicity (Example 7); parameters: species or system Gottingen minipigs; details: minipig, in vivo
Description: Following dose application on each dosing day, the dose sites were semi-occluded for approximately 20±1 hours from the first dose and then gently washed before the next dose was applied.

[2] = Nonclinical study, subcutaneous 3 mg/kg/day, 13 weeks (NOAEL); format: in vivo; details: Rat
[3] = Drug/excipient compatibility, 2 weeks at 40° C.; format: physicochemical; details: 2 weeks in most excipients at 40° C., with the exception of MCTs and DMI
Description: (§1) Pre-formulation experiments were performed to understand the solubility and stability of the drug in excipients. In relation to drug/excipient compatibility, DMVT-505 was stable for 2 weeks (peak purity>98%) in most excipients at 40° C., with the exception of MCTs and DMI, which may be due to oxidation. Based on the pre-formulation data, aqueous-based solvent systems were designed for WS3. Further formulations were prepared combining suitable phases developed during all the workstreams to obtain formulations to limit the suspected drug partitioning between the aqueous and oil phases (WS2/3/4).
as §1, with “oil-based” for “aqueous-based”, “WS2. Formulations based on these solvent systems, along with formulations with alternative emulsifiers (WS4) were developed.” for “WS3.”

AhR target gene, cyp1a1 = details: primary human keratinocytes, human or rodent leukocytes
[4] = Pre-formulation solubility of DMVT-505 in excipients and solvent systems; format: physicochemical
Description: as §1
Experiments conducted on the stability of DMVT-505 in individual excipients also allowed for the identification of suitable alternative oil and aqueous phase excipients, and this information was used during the formulation development as the basis of solvent system design.
For WS3, aqueous phases were designed and DMVT-505 solubility in such systems was determined, ahead of formulation development where formulations were sequentially developed, tested and optimized using accelerated physical stability data generated primarily via the LUMiSizer platform. […] Additionally, combined aspects of each workstream (WS2/3/4) were developed with optimal physical stability and to limit the partitioning of the drug between the oil and aqueous phases.
For WS2, oil phase solvent systems were designed and DMVT-505 solubility in such systems was determined, ahead of formulation development where formulations were sequentially developed, tested and optimized using accelerated physical stability data generated primarily via the LUMiSizer platform. […] A number of emulsifiers and surfactant systems (WS4) were screened in order to achieve a formulation which was, theoretically, as stable as CR01. To do this, WS4 formulations were rationally designed, prepared and tested in a similar fashion to the previous workstreams. Additionally, combined aspects of each workstream (WS2/3/4) were developed with optimal physical stability and to limit the partitioning of the drug between the oil and aqueous phases.

[5] = tested on: AhR pathway in intestinal human colon adenocarcinoma
[6] = Gao et al., Journal of Polymer Research 2011; cited from earlier work

SMILES: CC(C)c1c(O)cc(/C=C/c2ccccc2)cc1O [3,5-Dihydroxy-4-isopropyl-trans-stilbene]
- dermal irritation at the dose site [1]: no test article-related dermal irritation
- systemic toxicity [1]: no systemic toxicity
- AUC NOAEL [2]: 99 ng·h/mL
- peak purity [3]: > 98%
- expression of the AhR target gene cyp1a1 (AhR target gene, cyp1a1): induce the expression
- solubility in diisopropyl adipate [4]: good solubilizer
- solubility in mineral oil [4]: non-solvent
- solubility in water [4]: not soluble in water
- solubility ([4]; in fixed oils, fatty alcohols, glycols and volatile solvent): > 7 % w/w
- AhR pathway activity [5]: activator
- sensitivity to oxidation and photo degradation [6]: sensitive to oxidation and photo degradation
